Source: PubChem BioAssay AID256 (DTP/NCI, 2004)
Several values for one entry are separate records, joined by “and”; a condition that tells them apart may be missing. Equal entries are not always repeated. Inconclusive results and toxic doses are left out. Residues, ends and D or L forms follow the SMILES beside them. *: point of attachment. Trt = c1ccc(C(c2ccccc2)(c2ccccc2)*)cc1

System: CD2F1 mice, L1210 leukemia ip, survival T/C
Test: NCI In Vivo Anticancer Drug Screen. Data for tumor model L1210 Leukemia (intraperitoneal) in CD2F1 (CDF1) mice
Conditions: higher = longer survival
In short: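 Read-out first: treated-group measurement over vehicle-control measurement, expressed as a ratio. Animals bore a transplanted tumor line and were dosed with compound or vehicle.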

[1] = endpoint: mean survival time, dose: 12.5 mg/kg/injection, schedule: Q01DX005 (ip), vehicle: water
[2] = endpoint: mean survival time, dose: 25.0 mg/kg/injection, schedule: Q01DX005 (ip), vehicle: water
[3] = endpoint: mean survival time, dose: 50.0 mg/kg/injection, schedule: Q01DX005 (ip), vehicle: water
[4] = endpoint: mean survival time, dose: 25.0 mg/kg/injection, schedule: Q01DX009 (ip), vehicle: saline with Tween-80
[5] = endpoint: mean survival time, dose: 50.0 mg/kg/injection, schedule: Q01DX009 (ip), vehicle: saline with Tween-80
[6] = endpoint: mean survival time, dose: 100.0 mg/kg/injection, schedule: Q01DX009 (ip), vehicle: saline with Tween-80
[7] = endpoint: mean survival time, dose: 100.0 mg/kg/injection, schedule: Q01DX009 (ip), vehicle: saline
[8] = endpoint: mean survival time, dose: 200.0 mg/kg/injection, schedule: Q01DX009 (ip), vehicle: saline
[9] = endpoint: mean survival time, dose: 6.25 mg/kg/injection, schedule: Q01DX009 (ip), vehicle: saline with Tween-80
[10] = endpoint: mean survival time, dose: 100.0 mg/kg/injection, schedule: Q01DX001 (ip), vehicle: saline
[11] = endpoint: mean survival time, dose: 100.0 mg/kg/injection, schedule: Q04DX003 (ip), vehicle: saline
[12] = endpoint: mean survival time, dose: 200.0 mg/kg/injection, schedule: Q01DX001 (ip), vehicle: saline
[13] = endpoint: mean survival time, dose: 200.0 mg/kg/injection, schedule: Q04DX003 (ip), vehicle: saline
[14] = endpoint: mean survival time, dose: 400.0 mg/kg/injection, schedule: Q01DX001 (ip), vehicle: saline
[15] = endpoint: mean survival time, dose: 400.0 mg/kg/injection, schedule: Q04DX003 (ip), vehicle: saline
[16] = endpoint: mean survival time, dose: 100.0 mg/kg/injection, schedule: Q04DX002 (ip), vehicle: saline with Tween-80
[17] = endpoint: mean survival time, dose: 200.0 mg/kg/injection, schedule: Q04DX002 (ip), vehicle: saline with Tween-80
[18] = endpoint: mean survival time, dose: 100.0 mg/kg/injection, schedule: Q01DX001 (ip), vehicle: saline with Tween-80
[19] = endpoint: mean survival time, dose: 200.0 mg/kg/injection, schedule: Q01DX001 (ip), vehicle: saline with Tween-80
[20] = endpoint: mean survival time, dose: 50.0 mg/kg/injection, schedule: Q01DX009 (ip), vehicle: saline
[21] = endpoint: mean survival time, dose: 200.0 mg/kg/injection, schedule: Q01DX009 (ip), vehicle: saline with Tween-80
[22] = endpoint: mean survival time, dose: 400.0 mg/kg/injection, schedule: Q01DX009 (ip), vehicle: saline with Tween-80
[23] = endpoint: mean survival time, dose: 100.0 mg/kg/injection, schedule: Q04DX003 (ip), vehicle: saline with Tween-80
[24] = endpoint: mean survival time, dose: 200.0 mg/kg/injection, schedule: Q04DX003 (ip), vehicle: saline with Tween-80
[25] = endpoint: mean survival time, dose: 400.0 mg/kg/injection, schedule: Q04DX003 (ip), vehicle: saline with Tween-80

## CC(C)(O)CCNc1ncnc2c1ncn2C1OC(CO)C(O)C1O (stereo not drawn)
[1]
  T/C: 101 % of control
[2]
  T/C: 95 % of control and 103 % of control
[3]
  T/C: 124 % of control and 103 % of control
endpoint: mean survival time, dose: 100.0 mg/kg/injection, schedule: Q01DX005 (ip), vehicle: water
  T/C: 108 % of control

## CCCCCNc1ncnc2c(C)[nH]nc12
endpoint: median survival time, dose: 25.0 mg/kg/injection, schedule: Q01DX009 (ip), vehicle: Klucel (hydroxypropylcellulose) (HPC)
  T/C: 101 % of control
endpoint: median survival time, dose: 50.0 mg/kg/injection, schedule: Q01DX009 (ip), vehicle: Klucel (hydroxypropylcellulose) (HPC)
  T/C: 108 % of control
endpoint: median survival time, dose: 100.0 mg/kg/injection, schedule: Q01DX009 (ip), vehicle: Klucel (hydroxypropylcellulose) (HPC)
  T/C: 100 % of control
endpoint: median survival time, dose: 200.0 mg/kg/injection, schedule: Q01DX009 (ip), vehicle: Klucel (hydroxypropylcellulose) (HPC)
  T/C: 96 % of control

## CCCCCCCCSC#N
endpoint: mean survival time, dose: 50.0 mg/kg/injection, schedule: Q01DX001 (ip), vehicle: carboxymethylcellulose (CMC)
  T/C: 100 % of control

## c1cc[n+]2c(c1)-c1cccc[n+]1CCCC2
endpoint: mean survival time, dose: 75.0 mg/kg/injection, schedule: Q01DX009 (ip), vehicle: saline
  T/C: 108 % of control
endpoint: mean survival time, dose: 75.0 mg/kg/injection, schedule: Q04DX003 (ip), vehicle: saline
  T/C: 98 % of control
endpoint: mean survival time, dose: 150.0 mg/kg/injection, schedule: Q01DX009 (ip), vehicle: saline
  T/C: 100 % of control
endpoint: mean survival time, dose: 150.0 mg/kg/injection, schedule: Q04DX003 (ip), vehicle: saline
  T/C: 93 % of control
endpoint: mean survival time, dose: 300.0 mg/kg/injection, schedule: Q04DX003 (ip), vehicle: saline
  T/C: 96 % of control

## O=c1[nH]c(C(F)(F)F)nc2c1nc1n2CCC1
[4]
  T/C: 102 % of control
[5]
  T/C: 111 % of control
[6]
  T/C: 103 % of control

## CSc1nc(NC2OCC(O)C(O)C2O)cc(=O)[nH]1 (stereo not drawn)
endpoint: median survival time, dose: 12.5 mg/kg/injection, schedule: Q01DX005 (ip), vehicle: saline
  T/C: 102 % of control
endpoint: median survival time, dose: 25.0 mg/kg/injection, schedule: Q01DX005 (ip), vehicle: saline
  T/C: 98 % of control
endpoint: median survival time, dose: 50.0 mg/kg/injection, schedule: Q01DX005 (ip), vehicle: saline
  T/C: 100 % of control
endpoint: median survival time, dose: 100.0 mg/kg/injection, schedule: Q01DX005 (ip), vehicle: saline
  T/C: 98 % of control
endpoint: median survival time, dose: 200.0 mg/kg/injection, schedule: Q01DX005 (ip), vehicle: saline
  T/C: 100 % of control

## CC(=O)SCC(C)CCl (stereo not drawn)
[7]
  T/C: 101 % of control
[8]
  T/C: 98 % of control
endpoint: mean survival time, dose: 400.0 mg/kg/injection, schedule: Q01DX009 (ip), vehicle: saline
  T/C: 104 % of control

## CC(=O)OC1CCC2(C)C(CCC3C2CC(OC(C)=O)C2(C)C3CCC2C2(C)SCCS2)C1 (stereo not drawn)
endpoint: mean survival time, dose: 50.0 mg/kg/injection, schedule: Q04DX002 (ip), vehicle: Klucel (hydroxypropylcellulose) (HPC)
  T/C: 95 % of control
endpoint: mean survival time, dose: 100.0 mg/kg/injection, schedule: Q04DX002 (ip), vehicle: Klucel (hydroxypropylcellulose) (HPC)
  T/C: 98 % of control
endpoint: mean survival time, dose: 200.0 mg/kg/injection, schedule: Q04DX002 (ip), vehicle: Klucel (hydroxypropylcellulose) (HPC)
  T/C: 88 % of control

## CCCCCCCCCCCC(=O)[O][Pb]([CH2]C)([CH2]C)[CH2]C
endpoint: mean survival time, dose: 3.13 mg/kg/injection, schedule: Q01DX009 (ip), vehicle: saline with Tween-80
  T/C: 87 % of control
[9]
  T/C: 104 % of control

## COc1cc(OC)c(NC(=O)ON2C(=O)c3ccccc3C2=O)cc1Cl
endpoint: mean survival time, dose: 0.19 mg/kg/injection, schedule: Q01DX009 (ip), vehicle: saline with Tween-80
  T/C: 97 % of control
endpoint: mean survival time, dose: 0.39 mg/kg/injection, schedule: Q01DX009 (ip), vehicle: saline with Tween-80
  T/C: 94 % of control
endpoint: mean survival time, dose: 0.78 mg/kg/injection, schedule: Q01DX009 (ip), vehicle: saline with Tween-80
  T/C: 100 % of control
endpoint: mean survival time, dose: 1.56 mg/kg/injection, schedule: Q01DX009 (ip), vehicle: saline with Tween-80
  T/C: 97 % of control
endpoint: mean survival time, dose: 3.12 mg/kg/injection, schedule: Q01DX009 (ip), vehicle: saline with Tween-80
  T/C: 116 % of control and 96 % of control
[9]
  T/C: 100 % of control
endpoint: mean survival time, dose: 12.5 mg/kg/injection, schedule: Q01DX009 (ip), vehicle: saline with Tween-80
  T/C: 103 % of control
[4]
  T/C: 103 % of control
[5]
  T/C: 101 % of control
[6]
  T/C: 103 % of control

## [N-]=[N+]=NCc1cn(C2CC(O)C(CO)O2)c(=O)[nH]c1=O (stereo not drawn)
endpoint: mean survival time, dose: 6.25 mg/kg/injection, schedule: Q01DX005 (ip), vehicle: water
  T/C: 91 % of control
[1]
  T/C: 111 % of control
[2]
  T/C: 103 % of control
[3]
  T/C: 100 % of control

## COC1OC(CO)C(O)C(O)C1O (stereo not drawn)
[10]
  T/C: 101 % of control and 105 % of control
[11]
  T/C: 97 % of control
[12]
  T/C: 108 % of control and 105 % of control
[13]
  T/C: 102 % of control
[14]
  T/C: 101 % of control and 105 % of control
[15]
  T/C: 97 % of control

## C=CCc1ccccc1OC
[11]
  T/C: 95 % of control
[13]
  T/C: 104 % of control
[15]
  T/C: 95 % of control

## O=c1c([N+](=O)[O-])c[nH]c2ccccc12
[16]
  T/C: 95 % of control
[17]
  T/C: 95 % of control
endpoint: mean survival time, dose: 400.0 mg/kg/injection, schedule: Q04DX002 (ip), vehicle: saline with Tween-80
  T/C: 103 % of control

## O=C(COc1ccc(Cl)c(Cl)c1)NCCc1cc[n+](Cc2ccc(Cl)cc2S(=O)(=O)F)cc1
[18]
  T/C: 89 % of control
[19]
  T/C: 89 % of control

## NCCNCCNCc1ccccc1
[7]
  T/C: 94 % of control
[8]
  T/C: 107 % of control

## COC(=O)C(CC(C)C)NC(=O)C(N)CSC(c1ccccc1)(c1ccccc1)c1ccccc1 (stereo not drawn) (H-Cys(Trt)-Leu-OMe; configuration not given here)
endpoint: mean survival time, dose: 25.0 mg/kg/injection, schedule: Q01DX009 (ip), vehicle: saline
  T/C: 104 % of control
[20]
  T/C: 110 % of control
[7]
  T/C: 108 % of control

## CC1=N/C(=C/c2ccccc2)C(=O)O1
[6]
  T/C: 97 % of control
[21]
  T/C: 98 % of control
[22]
  T/C: 88 % of control

## CSc1cc(C)c(O)c(C)c1
[23]
  T/C: 100 % of control
[24]
  T/C: 104 % of control
[25]
  T/C: 102 % of control

## CC(=O)OC1CC(C)CCC1C(C)C (stereo not drawn)
[23]
  T/C: 113 % of control
[24]
  T/C: 106 % of control

## O=S(=O)(Nc1ccc(O)c(Cl)c1)c1ccccc1
[23]
  T/C: 98 % of control
[24]
  T/C: 97 % of control
[25]
  T/C: 110 % of control

## CCCn1cnc2c(=S)nc[nH]c21
endpoint: mean survival time, dose: 150.0 mg/kg/injection, schedule: Q01DX Z (ip), vehicle: carboxymethylcellulose (CMC)
  T/C: 119 % of control
endpoint: mean survival time, dose: 150.0 mg/kg/injection, schedule: Q04DX003 (ip), vehicle: saline with Tween-80
  T/C: 150 % of control
endpoint: mean survival time, dose: 200.0 mg/kg/injection, schedule: Q01DX Z (ip), vehicle: carboxymethylcellulose (CMC)
  T/C: 95 % of control
endpoint: mean survival time, dose: 300.0 mg/kg/injection, schedule: Q04DX003 (ip), vehicle: saline with Tween-80
  T/C: 161 % of control
endpoint: mean survival time, dose: 600.0 mg/kg/injection, schedule: Q04DX003 (ip), vehicle: saline with Tween-80
  T/C: 111 % of control

## CC(=O)NC1C(O)C(NC(C)=O)C(OC(C)=O)C(OC(C)=O)C1OC(C)=O (stereo not drawn)
[6]
  T/C: 95 % of control
[21]
  T/C: 103 % of control
[22]
  T/C: 103 % of control

## O=C1N=c2cc([N+](=O)[O-])c([N+](=O)[O-])cc2=N1
[18]
  T/C: 97 % of control
[19]
  T/C: 103 % of control
endpoint: mean survival time, dose: 400.0 mg/kg/injection, schedule: Q01DX001 (ip), vehicle: saline with Tween-80
  T/C: 98 % of control

## CCOC(=O)C(Br)C(Br)c1ccccc1 (stereo not drawn)
[20]
  T/C: 108 % of control
[7]
  T/C: 103 % of control
[8]
  T/C: 103 % of control

## C=CCOC(=O)Nc1ccc(S(=O)(=O)N(CCC)CCC)cc1
[10]
  T/C: 103 % of control
[12]
  T/C: 101 % of control
[14]
  T/C: 89 % of control

## O=C(O)c1nc2ccccc2c(=O)[nH]1
endpoint: mean survival time, dose: 50.0 mg/kg/injection, schedule: Q04DX002 (ip), vehicle: saline with Tween-80
  T/C: 93 % of control
[18]
  T/C: 102 % of control
[16]
  T/C: 93 % of control
[19]
  T/C: 92 % of control
[17]
  T/C: 93 % of control

## CCCCCCCCCCCCCCOc1ccc(Cl)cc1
[16]
  T/C: 87 % of control
[17]
  T/C: 87 % of control
